These results are taken from patent publication US20260049071A1, “PROTEIN TYROSINE KINASE INHIBITOR AND MEDICAL USE THEREOF” (BEYANG THERAPEUTICS CO., LTD., priority 2022, published 2026).

Molecules are shown by their SMILES. Converted amounts (≈) assume the structure as drawn. Read-outs that look alike come from different tables or passages of the source.

In general, IC50 refers to the midpoint of a concentration-inhibition curve.

Data set [1] can be described thus: Compound distribution in plasma and ocular tissues after single ocular dose in Dutch belted rabbits. The data set is classed as in vivo. Particulars: eye drops 1 mg/mL (0.05 mg/eye), 0.5 h, 4 h or 8 h post-dose. An excerpt:
Age-related macular degeneration and diabetic retinopathy are associated with neovascularization in the posterior eye segment Due to the corneal and conjunctival barrier, one of the main problems with topical eye drops used to treat the posterior eye segment disorders is the low-efficiency delivery of the drug to the posterior eye segment. Therefore, it is important to measure the distribution of the compound in an ophthalmic formulation in several major ocular tissues. […] Dutch belted rabbits were used in this experiment. […]
In this experiment, male Dutch belted rabbits weighed 1.5-2.5 kg were purchased from Pizhou Dongfang Breeding Co., Ltd. Any operation on the laboratory animals in this experiment was in compliance with the relevant SOP requirements of the experimental operation of 3D BioOptima, Suzhou, China, and had been approved by the Institutional Animal Care and Use Committee (IACUC) of 3D BioOptima. […] The prepared dose formulations were freshly prepared on the day of administration, samples were retained and the actual concentration of the dose formulation was determined.
On the day of the experiment, animals were administrated at 1 mg/mL (0.05 mg/eye, 50 μL/eye). […] The concentration of each analyte in the rabbit ocular tissues and plasma obtained in this experiment was determined by LC-MS/MS. […]

For data set [2] the following is noted: statement in the summary; cited from earlier work.
In a further data set the target is KDR (VEGFR2) (Homo sapiens (Human), UniProt P35968). Put plainly: Kinase inhibition, Mobility Shift Assay (VEGFR2). Type of data set: biochemical. A digest of the protocol:
(§1)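 Mobility shift assay: each kinase preincubated 10 min at room temperature with compound, then reacted with FAM-labeled peptide, MgCl2 and ATP at 28° C. for varying times. Substrate-to-product conversion read on Caliper; % inhibition normalised to no-kinase and DMSO controls, and IC50 fitted.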

A further data set has as its target EGFR (Homo sapiens (Human), UniProt P00533). Put plainly: Kinase inhibition, Mobility Shift Assay (EGFR). The data set is classed as biochemical. A digest of the protocol: as §1
For the next data set, the target named is FLT1 (VEGFR1) (Homo sapiens (Human), UniProt P17948). The experiment in a line: Kinase inhibition, Mobility Shift Assay (VEGFR1). Type of data set: biochemical. A digest of the protocol:
as §1

The next data set addresses FLT4 (VEGFR3) (Homo sapiens (Human), UniProt P35916). Put plainly: Kinase inhibition, Mobility Shift Assay (VEGFR3). Type of data set: biochemical. A digest of the protocol: as §1
For data set [3] the following is noted: pH 2.
Description: After sonication for 10 min, fix them on a shaker and shaking for 8 h at room temperature. After shaking, sonicate for 10 min and centrifuge for 15 min at 13,000 rpm. Pipette 0.1 mL of supernatant into a new tube, shake and rinse it with 5 mL, and discard the liquid. Transfer 0.5 mL of the supernatant again to a new tube, centrifuge it for 15 min at 13,000 rpm, then collect the supernatant (if necessary, dilute with water) and analyze it by LC-MS.
The sample concentrations at 3-5 points are subjected to fitting and reticle for quantification.

Chain of EGFR (P00533 25-1210): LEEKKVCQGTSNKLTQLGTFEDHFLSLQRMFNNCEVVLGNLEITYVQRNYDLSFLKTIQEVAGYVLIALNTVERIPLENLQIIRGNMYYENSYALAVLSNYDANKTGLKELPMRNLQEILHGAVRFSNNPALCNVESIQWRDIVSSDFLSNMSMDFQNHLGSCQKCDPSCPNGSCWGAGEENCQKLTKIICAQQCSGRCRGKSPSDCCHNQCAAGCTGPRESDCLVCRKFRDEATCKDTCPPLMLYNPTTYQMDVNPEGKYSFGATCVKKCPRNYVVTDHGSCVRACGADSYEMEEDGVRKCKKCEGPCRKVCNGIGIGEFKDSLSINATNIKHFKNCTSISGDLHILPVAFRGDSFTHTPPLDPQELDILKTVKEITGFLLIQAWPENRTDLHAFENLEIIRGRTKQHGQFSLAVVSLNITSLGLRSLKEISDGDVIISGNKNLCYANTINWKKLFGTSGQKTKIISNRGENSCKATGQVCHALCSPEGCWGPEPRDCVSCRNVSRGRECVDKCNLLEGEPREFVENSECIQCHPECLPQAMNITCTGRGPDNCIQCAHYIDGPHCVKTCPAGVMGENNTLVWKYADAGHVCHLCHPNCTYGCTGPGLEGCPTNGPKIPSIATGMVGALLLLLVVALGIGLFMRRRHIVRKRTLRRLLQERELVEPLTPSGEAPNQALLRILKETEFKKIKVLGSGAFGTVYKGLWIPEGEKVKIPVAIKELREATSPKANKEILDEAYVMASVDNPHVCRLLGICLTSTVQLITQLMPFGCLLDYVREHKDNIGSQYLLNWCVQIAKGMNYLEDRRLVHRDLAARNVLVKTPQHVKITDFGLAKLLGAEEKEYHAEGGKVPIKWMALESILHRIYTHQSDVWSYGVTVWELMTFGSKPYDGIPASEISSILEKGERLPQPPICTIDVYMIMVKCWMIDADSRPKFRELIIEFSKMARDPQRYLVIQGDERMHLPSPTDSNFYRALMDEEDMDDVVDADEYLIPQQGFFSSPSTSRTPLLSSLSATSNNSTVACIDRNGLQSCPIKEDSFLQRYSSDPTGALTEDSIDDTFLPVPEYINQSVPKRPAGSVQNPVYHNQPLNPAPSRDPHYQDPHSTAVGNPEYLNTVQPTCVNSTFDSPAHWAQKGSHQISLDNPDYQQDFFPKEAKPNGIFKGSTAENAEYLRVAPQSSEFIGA
Chain of FLT4 (VEGFR3) (P35916 25-1363): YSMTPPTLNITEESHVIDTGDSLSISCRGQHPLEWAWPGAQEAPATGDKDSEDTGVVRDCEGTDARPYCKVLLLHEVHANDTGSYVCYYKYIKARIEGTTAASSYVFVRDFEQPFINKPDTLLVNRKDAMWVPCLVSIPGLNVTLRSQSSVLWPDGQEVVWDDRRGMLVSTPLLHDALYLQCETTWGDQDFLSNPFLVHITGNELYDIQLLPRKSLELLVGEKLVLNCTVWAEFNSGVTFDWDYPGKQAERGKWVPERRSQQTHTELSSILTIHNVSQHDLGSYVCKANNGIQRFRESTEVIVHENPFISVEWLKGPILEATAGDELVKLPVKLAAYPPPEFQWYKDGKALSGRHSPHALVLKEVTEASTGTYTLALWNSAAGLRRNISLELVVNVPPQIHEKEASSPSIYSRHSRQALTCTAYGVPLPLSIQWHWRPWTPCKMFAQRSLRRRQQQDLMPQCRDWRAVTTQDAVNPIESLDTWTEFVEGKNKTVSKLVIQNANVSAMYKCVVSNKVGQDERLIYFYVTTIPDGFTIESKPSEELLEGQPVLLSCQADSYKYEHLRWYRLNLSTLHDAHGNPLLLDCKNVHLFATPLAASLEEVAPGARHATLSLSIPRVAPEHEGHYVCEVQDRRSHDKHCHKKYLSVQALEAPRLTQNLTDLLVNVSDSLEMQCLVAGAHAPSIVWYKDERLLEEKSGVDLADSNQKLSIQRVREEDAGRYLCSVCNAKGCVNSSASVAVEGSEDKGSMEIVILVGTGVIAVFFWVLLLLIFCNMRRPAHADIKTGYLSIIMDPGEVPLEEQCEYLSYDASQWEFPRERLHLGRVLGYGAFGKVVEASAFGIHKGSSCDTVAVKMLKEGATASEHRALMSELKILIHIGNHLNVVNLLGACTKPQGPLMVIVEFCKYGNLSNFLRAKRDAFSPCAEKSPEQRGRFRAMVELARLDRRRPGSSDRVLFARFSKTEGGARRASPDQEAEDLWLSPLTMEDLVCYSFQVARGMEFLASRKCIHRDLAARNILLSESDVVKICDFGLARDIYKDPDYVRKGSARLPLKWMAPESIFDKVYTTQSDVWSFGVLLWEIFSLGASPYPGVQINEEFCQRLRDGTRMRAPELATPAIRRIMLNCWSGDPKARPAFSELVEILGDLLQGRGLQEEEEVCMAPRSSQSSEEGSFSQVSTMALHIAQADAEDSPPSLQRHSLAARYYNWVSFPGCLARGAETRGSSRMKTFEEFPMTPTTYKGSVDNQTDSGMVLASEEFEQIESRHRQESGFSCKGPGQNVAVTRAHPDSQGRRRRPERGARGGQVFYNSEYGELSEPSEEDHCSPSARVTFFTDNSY
Chain of FLT1 (VEGFR1) (P17948 27-1338): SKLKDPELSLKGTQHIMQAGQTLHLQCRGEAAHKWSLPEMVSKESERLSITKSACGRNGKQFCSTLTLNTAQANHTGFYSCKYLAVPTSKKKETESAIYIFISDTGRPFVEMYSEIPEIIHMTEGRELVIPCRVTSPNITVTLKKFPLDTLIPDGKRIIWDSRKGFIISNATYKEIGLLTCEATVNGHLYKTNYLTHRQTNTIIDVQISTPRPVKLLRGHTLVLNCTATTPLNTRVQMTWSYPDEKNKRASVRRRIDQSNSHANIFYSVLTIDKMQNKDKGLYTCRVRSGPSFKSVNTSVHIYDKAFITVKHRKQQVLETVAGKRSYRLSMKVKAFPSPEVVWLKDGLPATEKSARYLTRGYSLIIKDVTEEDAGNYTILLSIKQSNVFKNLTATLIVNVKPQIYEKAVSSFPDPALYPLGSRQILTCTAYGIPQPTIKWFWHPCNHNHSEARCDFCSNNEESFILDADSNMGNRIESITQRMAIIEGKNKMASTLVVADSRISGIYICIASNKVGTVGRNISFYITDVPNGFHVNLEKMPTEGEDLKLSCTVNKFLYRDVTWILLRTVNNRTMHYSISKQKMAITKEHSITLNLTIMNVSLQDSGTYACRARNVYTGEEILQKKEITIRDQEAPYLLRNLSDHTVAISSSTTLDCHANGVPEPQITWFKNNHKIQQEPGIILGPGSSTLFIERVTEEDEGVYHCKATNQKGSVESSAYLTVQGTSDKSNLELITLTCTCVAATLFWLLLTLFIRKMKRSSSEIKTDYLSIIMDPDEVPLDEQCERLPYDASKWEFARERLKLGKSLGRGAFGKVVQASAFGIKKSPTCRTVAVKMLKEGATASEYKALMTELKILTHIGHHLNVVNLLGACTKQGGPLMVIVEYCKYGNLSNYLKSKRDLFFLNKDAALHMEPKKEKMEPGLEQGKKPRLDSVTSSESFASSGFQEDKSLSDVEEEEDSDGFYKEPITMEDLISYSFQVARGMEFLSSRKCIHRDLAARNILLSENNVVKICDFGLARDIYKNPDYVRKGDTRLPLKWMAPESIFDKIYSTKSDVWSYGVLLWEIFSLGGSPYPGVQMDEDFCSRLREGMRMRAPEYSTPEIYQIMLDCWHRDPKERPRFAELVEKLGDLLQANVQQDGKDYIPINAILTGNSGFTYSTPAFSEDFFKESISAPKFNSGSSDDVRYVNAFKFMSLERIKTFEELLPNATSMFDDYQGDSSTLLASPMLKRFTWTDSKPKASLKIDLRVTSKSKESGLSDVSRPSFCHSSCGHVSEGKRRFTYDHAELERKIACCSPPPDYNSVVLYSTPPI
Chain of KDR (VEGFR2) (P35968 790-1356): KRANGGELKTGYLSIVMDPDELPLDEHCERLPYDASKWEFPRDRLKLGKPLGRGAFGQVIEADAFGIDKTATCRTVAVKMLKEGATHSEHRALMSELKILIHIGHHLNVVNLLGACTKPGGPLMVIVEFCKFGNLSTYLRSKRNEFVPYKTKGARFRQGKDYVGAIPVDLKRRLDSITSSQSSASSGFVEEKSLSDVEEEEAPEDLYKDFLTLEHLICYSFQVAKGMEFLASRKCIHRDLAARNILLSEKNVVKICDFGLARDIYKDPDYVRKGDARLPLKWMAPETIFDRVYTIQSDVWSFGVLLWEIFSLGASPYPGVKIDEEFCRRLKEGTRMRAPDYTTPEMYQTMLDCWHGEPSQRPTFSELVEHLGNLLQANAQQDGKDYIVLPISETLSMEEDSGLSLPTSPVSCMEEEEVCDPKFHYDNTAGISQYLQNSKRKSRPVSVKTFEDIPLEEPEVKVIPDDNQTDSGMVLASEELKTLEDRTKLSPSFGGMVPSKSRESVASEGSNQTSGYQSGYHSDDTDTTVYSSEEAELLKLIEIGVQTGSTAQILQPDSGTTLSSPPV

For the compound `CNC(=O)c1ccccc1Sc1ccc2c(/C=C/c3ccccn3)n[nH]c2c1` [Axitinib], the “drug concentration in retina” value in data set [1] was “below the lower limit of quantitation”; in data set [1] (listed as axitinib) it was “below BLOQ”. Besides, in data set [2], the solubility is recorded as under 2 micrograms/milliliter.
`CNC(=O)c1ccccc1Sc1ccc2c(/C=C/c3ccccn3)ncn2c1` [Compound I-26, N-methyl-2-({1-[(E)-2-(pyridin-2-yl)vinyl]imidazo[1,5-a]pyridin-6-yl}thio)benzamide]: the IC50 was over 100 nM at KDR (VEGFR2), over 60000 nM at EGFR, over 100 nM at FLT1 (VEGFR1) and over 100 nM at FLT4 (VEGFR3). Besides, the “solubility” value in data set [3] was 142.0 µg/mL (≈ 367 µM).
